Source: ChEMBL document CHEMBL3124874, “Development of selective inhibitors for aldehyde dehydrogenases based on substituted indole-2,3-diones” (J Med Chem, 2014)

Key:
[1] = target: T1, Aldehyde dehydrogenase, mitochondrial (Homo sapiens, UniProt P05091); test: Inhibition of human ALDH2 using propionaldehyde as substrate preincubated for 2 mins followed by substrate addition by spectrophotometry in presence of NAD+
T1 sequence (P05091 whole entry): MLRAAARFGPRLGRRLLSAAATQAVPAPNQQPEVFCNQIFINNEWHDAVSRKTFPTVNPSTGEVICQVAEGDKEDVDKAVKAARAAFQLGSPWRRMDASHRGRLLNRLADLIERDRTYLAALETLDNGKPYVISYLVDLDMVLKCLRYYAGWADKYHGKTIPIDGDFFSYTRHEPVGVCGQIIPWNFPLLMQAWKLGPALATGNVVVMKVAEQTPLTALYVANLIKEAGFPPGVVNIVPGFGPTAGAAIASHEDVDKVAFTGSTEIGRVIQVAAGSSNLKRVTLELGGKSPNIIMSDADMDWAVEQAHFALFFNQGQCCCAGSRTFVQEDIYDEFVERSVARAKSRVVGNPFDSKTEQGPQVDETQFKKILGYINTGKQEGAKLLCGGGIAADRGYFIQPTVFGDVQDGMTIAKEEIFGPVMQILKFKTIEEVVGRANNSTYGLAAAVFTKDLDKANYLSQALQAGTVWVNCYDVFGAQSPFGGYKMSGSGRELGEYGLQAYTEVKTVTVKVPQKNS

[2] = target: T2, Aldehyde dehydrogenase 1A1 (Homo sapiens, UniProt P00352); test: Inhibition of human ALDH1A1 using propionaldehyde as substrate preincubated for 2 mins followed by substrate addition by spectrophotometry in presence of NAD+
T2 sequence (P00352 whole entry): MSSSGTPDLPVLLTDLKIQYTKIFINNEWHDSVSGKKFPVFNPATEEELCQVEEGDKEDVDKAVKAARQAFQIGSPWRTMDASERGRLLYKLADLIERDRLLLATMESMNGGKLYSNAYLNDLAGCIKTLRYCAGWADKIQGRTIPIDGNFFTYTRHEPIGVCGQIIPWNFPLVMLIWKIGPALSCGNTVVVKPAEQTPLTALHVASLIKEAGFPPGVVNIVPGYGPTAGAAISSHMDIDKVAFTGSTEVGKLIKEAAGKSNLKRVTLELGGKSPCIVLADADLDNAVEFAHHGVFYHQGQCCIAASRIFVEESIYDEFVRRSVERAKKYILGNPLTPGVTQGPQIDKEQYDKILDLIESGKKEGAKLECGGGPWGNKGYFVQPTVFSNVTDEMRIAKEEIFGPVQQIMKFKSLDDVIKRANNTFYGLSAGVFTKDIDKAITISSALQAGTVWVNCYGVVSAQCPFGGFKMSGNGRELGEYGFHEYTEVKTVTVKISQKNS

[3] = target: T3, Aldehyde dehydrogenase, dimeric NADP-preferring (Homo sapiens, UniProt P30838); test: Inhibition of full length human ALDH3A1 expressed in Escherichia coli BL21 (DE3) using benzaldehyde as substrate preincubated for 2 mins followed by substrate addition by spectrophotometry in presence of NADP+
T3 sequence (P30838 whole entry): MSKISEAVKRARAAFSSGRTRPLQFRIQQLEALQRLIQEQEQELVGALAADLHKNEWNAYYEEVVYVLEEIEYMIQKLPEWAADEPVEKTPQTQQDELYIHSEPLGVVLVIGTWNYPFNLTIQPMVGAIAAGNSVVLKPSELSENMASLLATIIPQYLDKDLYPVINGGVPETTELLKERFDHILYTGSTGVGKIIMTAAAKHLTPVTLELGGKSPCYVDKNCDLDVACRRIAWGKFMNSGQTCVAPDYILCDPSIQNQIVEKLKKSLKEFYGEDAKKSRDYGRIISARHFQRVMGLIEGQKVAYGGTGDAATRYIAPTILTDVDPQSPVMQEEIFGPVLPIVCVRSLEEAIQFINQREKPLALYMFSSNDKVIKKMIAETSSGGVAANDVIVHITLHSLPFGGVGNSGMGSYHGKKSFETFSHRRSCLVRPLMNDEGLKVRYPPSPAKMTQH

[4] = target: T1, Aldehyde dehydrogenase, mitochondrial; test: Inhibition of human ALDH2 using propionaldehyde as substrate by Lineweaver-Burk plot analysis
[5] = target: T2, Aldehyde dehydrogenase 1A1; test: Competitive inhibition of human ALDH1A1 using propionaldehyde as substrate by Lineweaver-Burk plot analysis
[6] = target: T1, Aldehyde dehydrogenase, mitochondrial; test: Inhibition of human ALDH2 by Lineweaver-Burk plot analysis in presence of NAD+
[7] = target: T3, Aldehyde dehydrogenase, dimeric NADP-preferring; test: Inhibition of human ALDH3A1 using benzaldehyde as substrate by Lineweaver-Burk plot analysis
[8] = target: T2, Aldehyde dehydrogenase 1A1; test: Noncompetitive/mixed type inhibition of human ALDH1A1 by Lineweaver-Burk plot analysis in presence of NAD+
[9] = target: T3, Aldehyde dehydrogenase, dimeric NADP-preferring; test: Inhibition of human ALDH3A1 by Lineweaver-Burk plot analysis in presence of NADP+

| SMILES | IC50 [1] [µM] | IC50 [2] [µM] | IC50 [3] [µM] | further results |
| --- | --- | --- | --- | --- |
| O=C1C(=O)N(CCCc2ccccc2)c2ccccc21 | 1.2 | 0.05 | 0.46 | – |
| O=C1C(=O)N(C/C=C/c2ccccc2)c2ccccc21 | > 100 | 0.07 | 0.31 | – |
| O=C1C(=O)N(C/C=C/c2ccccc2)c2ccc(Cl)cc21 | – | 0.57 | – | – |
| O=C1C(=O)N(CCc2ccccc2)c2ccccc21 | 3.5 | 0.07 | – | – |
| O=C1C(=O)N(CCc2ccccc2)c2ccc(Cl)cc21 | 0.41 | 0.09 | – | – |
| O=C1C(=O)N(CCc2ccccc2)c2ccc(Br)cc21 | 0.05 | 2 | 18 | – |
| Cc1cc(Br)c2c(c1)C(=O)C(=O)N2 | 2.4 | 0.72 | 0.36 | Ki [4]: 1 µM; Ki [5]: 0.9 µM; Ki [6]: 2.2 µM; Ki [7]: 0.38 µM; Ki [8]: 0.29 µM; Ki [9]: 0.5 µM |
| O=C1C(=O)N(Cc2ccccc2)c2ccc(Br)cc21 | 2.1 | 0.58 | – | – |
| O=C1C(=O)N(CN2CCN(Cc3ccc4c(c3)OCO4)CC2)c2ccc(Br)cc21 | > 100 | 15 | 73 | – |
| O=C1C(=O)N(Cc2ccccc2)c2ccc(Cl)cc21 | 2.1 | 0.06 | – | – |

Second part, led by results:

| IC50 [1] [µM] | IC50 [2] [µM] | IC50 [3] [µM] | SMILES | further results |
| --- | --- | --- | --- | --- |
| > 100 | 20 | 1.3 | O=C1C(=O)N(CN2CCOCC2)c2ccccc21 | – |
| > 100 | 50 | 0.93 | O=C1C(=O)N(CN2CCN(Cc3ccccc3)CC2)c2ccccc21 | – |
| 1.7 | 0.04 | 0.42 | CCCCCN1C(=O)C(=O)c2ccccc21 | – |
| > 100 | 12 | 0.3 | O=C1C(=O)N(CN2CCN(Cc3ccc4c(c3)OCO4)CC2)c2ccccc21 | – |
| – | > 100 | 1.5 | O=C1C(=O)N(CN2CCN(Cc3ccc(F)cc3)CC2)c2ccccc21 | – |
| – | 35 | 1.9 | O=C1C(=O)N(CN2CCN(Cc3cccc(F)c3)CC2)c2ccccc21 | – |
| – | > 100 | 1.7 | O=C1C(=O)N(CN2CCN(Cc3cccc(Cl)c3)CC2)c2ccccc21 | – |
| – | 34 | 1.2 | COc1cccc(CN2CCN(CN3C(=O)C(=O)c4ccccc43)CC2)c1 | – |
| – | 4 | 1.8 | O=C1C(=O)N(CN2CCN(Cc3ccccc3F)CC2)c2ccccc21 | – |
| > 100 | 35 | 1.6 | CN1CCN(CN2C(=O)C(=O)c3ccccc32)CC1 | – |
| – | 19 | 1.6 | O=C1C(=O)N(CN2CCN(CN3C(=O)C(=O)c4ccccc43)C2)c2ccccc21 | – |
